Measurements: the NIST ThermoML archive (doi:10.1016/j.jct.2010.04.013)

Assay: mn = molality of the nth substance listed, in mol/kg
Conditions: 101 kPa, Liquid; for mass density: Vibrating tube method; for speed of sound: Pulse-echo method

[Ca+2].[O-][Cl+3]([O-])([O-])[O-].[O-][Cl+3]([O-])([O-])[O-] [calcium diperchlorate] + C[S+](C)[O-]
Conditions | mass density, 293.15 K [kg/m3] | mass density, 298.15 K [kg/m3] | mass density, 303.15 K [kg/m3] | mass density, 313.15 K [kg/m3] | mass density, 323.15 K [kg/m3] | mass density, 333.15 K [kg/m3] | speed of sound, 298.15 K [m/s]
m1 = 0.01996 | 1103.64 | 1098.63 | 1093.62 | 1083.61 | 1073.6 | 1063.59 | –
m1 = 0.02505 | 1104.52 | 1099.51 | 1094.5 | 1084.5 | 1074.49 | 1064.5 | –
m1 = 0.03085 | 1105.52 | 1100.51 | 1095.51 | 1085.52 | 1075.52 | 1065.54 | 1486.8
m1 = 0.03807 | 1106.77 | 1101.77 | 1096.77 | 1086.78 | 1076.8 | 1066.82 | 1487.3
m1 = 0.0488 | 1108.62 | 1103.63 | 1098.64 | 1088.67 | 1078.7 | 1068.74 | 1488.2
m1 = 0.06089 | 1110.72 | 1105.73 | 1100.74 | 1090.8 | 1080.86 | 1070.91 | 1489.3
m1 = 0.07827 | 1113.74 | 1108.77 | 1103.81 | 1093.88 | 1083.96 | 1074.05 | 1490.8
m1 = 0.1006 | 1117.66 | 1112.7 | 1107.75 | 1097.85 | 1087.97 | 1078.08 | 1492.6
m1 = 0.1214 | 1121.33 | 1116.39 | 1111.45 | 1101.58 | 1091.73 | 1081.88 | 1494.5
m1 = 0.1417 | 1124.92 | 1119.99 | 1115.06 | 1105.22 | 1095.39 | 1085.57 | 1496.2
m1 = 0.1651 | 1129.07 | 1124.16 | 1119.25 | 1109.44 | 1099.65 | 1089.87 | 1498.2
m1 = 0.1858 | 1132.79 | 1127.88 | 1122.99 | 1113.2 | 1103.45 | 1093.69 | 1500.1

C[S+](C)[O-] [dimethyl sulfoxide] + O=S(=O)([O-])C(F)(F)F.O=S(=O)([O-])C(F)(F)F.[Be+2]
m2 = 0
Conditions | mass density [kg/m3]
293.15 K | 1100.21
298.15 K | 1095.18
303.15 K | 1090.16
313.15 K | 1080.11
323.15 K | 1070.07
333.15 K | 1060.03
